Laboratory results taken from US20230312524A1, “ALPHA1A-ADRENERGIC RECEPTOR AGONISTS AND METHODS OF USE” (CuraSen Therapeutics, Inc., priority 2020, published 2023).
Read-outs that look alike come from different tables or passages of the source.

Target: T1, α1A-ARS (Homo sapiens, UniProt P35348)
T1 sequence (P35348 1-466): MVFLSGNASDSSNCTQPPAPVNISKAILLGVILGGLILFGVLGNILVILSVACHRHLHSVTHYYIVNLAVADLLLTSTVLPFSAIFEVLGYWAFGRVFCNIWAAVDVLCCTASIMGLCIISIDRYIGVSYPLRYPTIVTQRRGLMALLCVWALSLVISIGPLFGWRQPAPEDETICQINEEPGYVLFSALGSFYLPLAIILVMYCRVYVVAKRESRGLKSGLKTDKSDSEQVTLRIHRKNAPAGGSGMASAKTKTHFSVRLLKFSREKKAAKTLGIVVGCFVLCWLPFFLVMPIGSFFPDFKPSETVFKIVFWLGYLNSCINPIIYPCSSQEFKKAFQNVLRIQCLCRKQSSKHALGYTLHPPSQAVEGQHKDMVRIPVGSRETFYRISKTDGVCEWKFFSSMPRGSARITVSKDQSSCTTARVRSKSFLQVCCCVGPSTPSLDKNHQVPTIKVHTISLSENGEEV
Assay: Calcium flux assay (Calcium 6 dye) in cells expressing an α1-AR
Assay type: cell-based
Conditions: for Emax: read-out: Average Emax
Text: Calcium flux experimental design: alpha-1 adrenergic receptors (α1-ARs) couple to Gq proteins, which results in downstream activation of phospholipase C and release of calcium from intracellular stores. Intracellular calcium increase upon α1-AR activation can be detected by Calcium 6 dye.
Cell preparation: cells expressing an α1-AR were washed in warmed phosphate-buffered saline to remove medium and harvested using versene (Caisson Labs, catalog #EDL01).
Media was removed from cells by tapping plates upside-down on absorbent wipes, followed by 15 second upside-down 50×g centrifugation, again on absorbent wipes. 12 μL cell dye solution was added to cells using a reagent dispenser (Integra viaFILL) and cells were incubated for 90 minutes at 37° C., 5% CO2.
Compound preparation: candidate alpha-adrenergic compounds, dissolved to 10 mM in DMSO, were diluted in_assay buffer (HBSS/H-EPES containing 2 mM CaCl2 and 2 mM probenecid sodium salt). […] On all assay plates, vehicle (DMSO) and positive control (10 μM epinephrine) conditions were included on the plate, as well as a dose-response curve of epinephrine. […] 384 well compound plates were centrifuged briefly at 250×g, sealed (Axygen PCR-SP) and incubated at 37° C. until the 90 minute cell dye incubation was complete.
Calcium 6 stained cells and 384 well compound plates were loaded onto the Flexstation and incubated on the machine for 5 minutes before initiating the assay.
For each assay well, baseline Calcium 6 fluorescence was detected for 18 seconds prior to 12 μL compound addition at 12 μL per second. Changes in Calcium 6 fluorescence were detected for a further 22 seconds, for a total read time of 40 seconds. All detection was performed with medium gain sensitivity, bottom read, with 6 flashes per read.
Data analysis: for calcium flux, analysis of maximum change from baseline over the 40-second read time was determined using Softmax Pro and data was exported as raw text files. Potency estimates (EC50) were derived from dose response curves (maximum change from baseline versus the log concentration of test compound) fit by four-parameter nonlinear regression using Graphpad Prism. Efficacy was determined by comparing the magnitude of the test compound signal window (fitted curve max−min) with the signal window of the full agonist control, epinephrine. […] All experiments were repeated a minimum of three times, with the average (mean) potency and maximum effect relative to the within-plate full agonist dose-response comparator reported.

[1] = calcium flux, α1A-AR, maximum effect relative to full agonist epinephrine
[2] = calcium flux, α1A-AR, mean of at least three experiments, read-out: Average PEC50

| Emax [1] | SMILES | EC50 [2] | Emax | EC50 |
| --- | --- | --- | --- | --- |
| > 61% | FC(F)(F)c1ccc(CC2=NCCN2)c(-c2ccccc2)c1 [Compound 75] | 10 to 977 nM |  |  |
|  | FCc1cc(Cl)ccc1CC1=NCCN1 [Compound 76] | 10 to 977 nM | 21 to 60% |  |
|  | FC(F)(F)c1ccc(CC2=NCCN2)c(C2CC2)c1 [Compound 77] | 10 to 977 nM | > 61% |  |
|  | CCc1cc(C(F)(F)F)ccc1CC1=NCCN1 [Compound 78] | < 9.77 nM | > 61% |  |
| > 61% | Fc1ccc(CC2=NCCN2)c(-c2ccccc2)c1 [Compound 79] | < 9.77 nM |  |  |
|  | Fc1ccc(CC2=NCCN2)c(C(F)(F)F)c1 [Compound 80] | > 1000 nM | 21 to 60% |  |
|  | COc1ccc(CC2=NCCN2)c(C(F)(F)F)c1 [Compound 81] | 10 to 977 nM | > 61% |  |
|  | FC(F)c1cc(Cl)ccc1CC1=NCCN1 [Compound 82] | 10 to 977 nM | 21 to 60% |  |
|  | N#Cc1ccc(CC2=NCCN2)c(C(F)(F)F)c1 [Compound 83] | > 1000 nM | 21 to 60% |  |
|  | CC(C)c1cc(Cl)ccc1CC1=NCCN1 [Compound 84] | 10 to 977 nM | 21 to 60% |  |
|  | FC(F)(F)Oc1cc(Cl)ccc1CC1=NCCN1 [Compound 85] | 10 to 977 nM | 21 to 60% |  |
|  | Cc1ccc(Cl)cc1CC1=NCCN1 [Compound 86] | 10 to 977 nM | 21 to 60% |  |
|  | Cc1cccc(Cl)c1CC1=NCCN1 [Compound 87] |  | 21 to 60% | 10 to 977 nM |
|  | CC(C)Cc1cc(Cl)ccc1CC1=NCCN1 [Compound 88] | 10 to 977 nM | > 61% |  |
|  | Cc1c(Cl)cccc1CC1=NCCN1 [Compound 89] | > 1000 nM | 21 to 60% |  |
|  | FC(F)(F)Cc1cc(Cl)ccc1CC1=NCCN1 [Compound 90] | > 1000 nM | 21 to 60% |  |
| > 61% | Clc1ccc(CC2=NCCN2)c(-n2cccc2)c1 [Compound 91] | 10 to 977 nM |  |  |
|  | FC(F)(F)c1coc2c(CC3=NCCN3)cccc12 [Compound 92] | > 1000 nM | 21 to 60% |  |
| > 61% | FC(F)(F)c1ccc(CC2=NCCN2)c(-n2cccn2)c1 [Compound 93] | 10 to 977 nM |  |  |
| 21 to 60% | Cc1coc(-c2cc(Cl)ccc2CC2=NCCN2)n1 [Compound 94] | 10 to 977 nM |  |  |
| 21 to 60% | FC(F)(F)c1ccc(CC2=NCCN2)c(C2CCCCC2)c1 [Compound 96] | > 1000 nM |  |  |
| < 20% | CN(CC(F)(F)F)c1cc(C(F)(F)F)ccc1CC1=NCCN1 [Compound 97] | > 1000 nM |  |  |
|  | Cc1cc2c(C)c(CC3=NCCN3)cc(Cl)c2o1 [Compound 98] | 10 to 977 nM | 21 to 60% |  |

| Emax [1] | SMILES | EC50 [2] | Emax | EC50 |
| --- | --- | --- | --- | --- |
|  | CCc1c(Cl)cccc1CC1=NCCN1 [Compound 99] | > 1000 nM | 21 to 60% |  |
|  | Cc1c(CC2=NCCN2)cc(Cl)c2[nH]ccc12 [Compound 100] | < 9.77 nM | > 61% |  |
|  | Cc1c(CC2=NCCN2)cc(Cl)c2c1ccn2C [Compound 101] | < 9.77 nM | > 61% |  |
|  | CC(C)Oc1cc(Cl)ccc1CC1=NCCN1 [Compound 102] | 10 to 977 nM | 21 to 60% |  |
| > 61% | Clc1ccc(CC2=NCCN2)c(-c2ccon2)c1 [Compound 104] | 10 to 977 nM |  |  |
|  | Cc1c(CC2=NCCN2)cc(Cl)c2c1cnn2C [Compound 105] | 10 to 977 nM | 21 to 60% |  |
|  | Cc1c(CC2=NCCN2)cc(Cl)c2nn(C)cc12 [Compound 106] | 10 to 977 nM | 21 to 60% |  |
|  | Cc1coc2c(Cl)cc(CC3=NCCN3)c(C)c12 [Compound 107] | < 9.77 nM | 21 to 60% |  |
|  | Cc1c(CC2=NCCN2)cc(Cl)c2[nH]ncc12 [Compound 108] | 10 to 977 nM | > 61% |  |
| > 61% | Clc1cccc(CC2=NCCN2)c1-n1cccc1 [Compound 109] | 10 to 977 nM |  |  |
| > 61% | CCc1cc(S(=O)(=O)CF)ccc1CC1=NCCN1 [Compound 110] | 10 to 977 nM |  |  |
| > 61% | CCc1cc(S(=O)(=O)C(F)(F)F)ccc1CC1=NCCN1 [Compound 111] | 10 to 977 nM |  |  |
| > 61% | CCc1cc(S(=O)(=O)C(F)F)ccc1CC1=NCCN1 [Compound 112] | 10 to 977 nM |  |  |
| > 61% | CCc1cc(S(C)(=O)=O)ccc1CC1=NCCN1 [Compound 113] | 10 to 977 nM |  |  |
|  | FC(F)Oc1cc(Cl)ccc1CC1=NCCN1 [Compound 114] | 10 to 977 nM | 21 to 60% |  |
| 21 to 60% | Cc1cccn1-c1c(Cl)cccc1CC1=NCCN1 [Compound 115] | > 1000 nM |  |  |
| > 61% | Cc1cccn1-c1cc(Cl)ccc1CC1=NCCN1 [Compound 116] | 10 to 977 nM |  |  |
|  | CC(C)C(F)(F)c1cc(Cl)ccc1CC1=NCCN1 [Compound 117] | 10 to 977 nM | 21 to 60% |  |
| < 20% | Clc1ccc(CC2=NCCN2)c(C2CCOCC2)c1 [Compound 118] | > 1000 nM |  |  |
| < 20% | Clc1ccc(CC2=NCCN2)c(CC2CCOCC2)c1 [Compound 119] | > 1000 nM |  |  |
| < 20% | Clc1ccc(CC2=NCCN2)c(Cc2ccccc2)c1 [Compound 120] | > 1000 nM |  |  |
|  | CCC(F)(F)c1cc(Cl)ccc1CC1=NCCN1 [Compound 121] | 10 to 977 nM | 21 to 60% |  |
| > 61% | Clc1ccc(CC2=NCCN2)c(N2CCCC2)c1 [Compound 122] | 10 to 977 nM |  |  |

| Emax [1] | SMILES | EC50 [2] | Emax | EC50 |
| --- | --- | --- | --- | --- |
|  | Cc1cc(Cl)cc(C)c1CC1=NCCN1 [Compound 123] | 10 to 977 nM | > 61% |  |
| 21 to 60% | COCc1cc(Cl)ccc1CC1=NCCN1 [Compound 124] | 10 to 977 nM |  |  |
|  | Cc1cc(Cl)cc(Cl)c1CC1=NCCN1 [Compound 125] | 10 to 977 nM | > 61% |  |
|  | Cc1c(CC2=NCCN2)cccc1C(F)(F)F [Compound 126] | 10 to 977 nM | 21 to 60% |  |
|  | Cc1ccc(C(F)(F)F)cc1CC1=NCCN1 [Compound 127] | 10 to 977 nM | > 61% |  |
|  | Cc1cc(OC(F)(F)F)ccc1CC1=NCCN1 [Compound 128] | 10 to 977 nM | 21 to 60% |  |
|  | Cc1cc(OC(F)F)ccc1CC1=NCCN1 [Compound 129] | 10 to 977 nM | 21 to 60% |  |
|  | Cc1cc(CC2=NCCN2)cc(C(F)(F)F)c1 [Compound 130] | 10 to 977 nM | > 61% |  |
|  | FC(F)(F)c1cccc(CC2=NCCN2)c1Cl [Compound 131] | 10 to 977 nM | 21 to 60% |  |
|  | FC(F)(F)c1ccc(Cl)c(CC2=NCCN2)c1 [Compound 132] | 10 to 977 nM | > 61% |  |
|  | FC(F)(F)c1ccc(CC2=NCCN2)c(Cl)c1 [Compound 133] | 10 to 977 nM | 21 to 60% |  |
|  | FC(F)(F)c1cccc(Cl)c1CC1=NCCN1 [Compound 134] | 10 to 977 nM | > 61% |  |
|  | FC(F)(F)Oc1ccc(CC2=NCCN2)c(Cl)c1 [Compound 135] | 10 to 977 nM | 21 to 60% |  |
|  | FC(F)Oc1ccc(CC2=NCCN2)c(Cl)c1 [Compound 136] | 10 to 977 nM | 21 to 60% |  |
|  | CCC(F)(F)c1c(Cl)cccc1CC1=NCCN1 [Compound 137] | 10 to 977 nM | 21 to 60% |  |
|  | FC(F)c1ccc(CC2=NCCN2)c(Cl)c1 [Compound 138] | 10 to 977 nM | > 61% |  |
| 21 to 60% | Cc1c(CC2=NCCN2)ccc(S(C)(=O)=O)c1Cl [Compound 139] | > 1000 nM |  |  |
| > 61% | Cc1c(CC2=NCCN2)ccc(S(=O)(=O)CF)c1Cl [Compound 140] | > 1000 nM |  |  |
| > 61% | CCc1c(CC2=NCCN2)ccc(S(=O)(=O)CF)c1Cl [Compound 141] | > 1000 nM |  |  |
|  | C[C@@H](F)c1cc(Cl)ccc1CC1=NCCN1 [Compound 142] | 10 to 977 nM | 21 to 60% |  |
| 21 to 60% | CCc1c(CC2=NCCN2)ccc(S(C)(=O)=O)c1Cl [Compound 144] | > 1000 nM |  |  |
| < 20% | C[C@H](O)c1cc(Cl)ccc1CC1=NCCN1 [Compound 145] | > 1000 nM |  |  |
